One compound from patent publication EP1616965A1, “Methods and assays for detecting guanylate cyclase activity” (AXXAM S.r.l., priority 2004, dated 2006) can be followed below.

The target in the assay is T1, soluble guanylate cyclase (sGC) (Rattus norvegicus, UniProt P19686+P20595, C541D/E473K/R592Q).
T1 construct: To reconstitute the full length mutated gene, these three discrete fragments were used as template in a final PCR reaction; expressed in transfected cells
T1 sequence (P19686 1-690 R592Q): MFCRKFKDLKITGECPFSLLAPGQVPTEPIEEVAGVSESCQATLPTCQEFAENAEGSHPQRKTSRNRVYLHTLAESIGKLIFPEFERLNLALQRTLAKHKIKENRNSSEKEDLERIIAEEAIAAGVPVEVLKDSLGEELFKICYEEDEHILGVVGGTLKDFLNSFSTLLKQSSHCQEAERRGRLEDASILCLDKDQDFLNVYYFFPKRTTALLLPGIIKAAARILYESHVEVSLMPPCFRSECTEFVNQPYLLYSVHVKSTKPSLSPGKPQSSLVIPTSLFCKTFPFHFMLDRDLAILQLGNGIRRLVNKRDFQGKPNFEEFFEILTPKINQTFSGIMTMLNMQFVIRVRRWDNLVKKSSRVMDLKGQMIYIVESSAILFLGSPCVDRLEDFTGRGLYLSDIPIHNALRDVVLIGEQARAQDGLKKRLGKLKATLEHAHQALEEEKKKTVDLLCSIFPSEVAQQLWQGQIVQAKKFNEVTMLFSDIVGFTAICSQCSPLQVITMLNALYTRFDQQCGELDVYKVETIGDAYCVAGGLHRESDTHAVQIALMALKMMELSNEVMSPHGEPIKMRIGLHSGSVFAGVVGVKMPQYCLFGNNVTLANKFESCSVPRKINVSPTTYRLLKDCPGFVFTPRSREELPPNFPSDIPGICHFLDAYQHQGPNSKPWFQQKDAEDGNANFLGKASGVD
T1 sequence (P20595 1-619 E473K/C541D): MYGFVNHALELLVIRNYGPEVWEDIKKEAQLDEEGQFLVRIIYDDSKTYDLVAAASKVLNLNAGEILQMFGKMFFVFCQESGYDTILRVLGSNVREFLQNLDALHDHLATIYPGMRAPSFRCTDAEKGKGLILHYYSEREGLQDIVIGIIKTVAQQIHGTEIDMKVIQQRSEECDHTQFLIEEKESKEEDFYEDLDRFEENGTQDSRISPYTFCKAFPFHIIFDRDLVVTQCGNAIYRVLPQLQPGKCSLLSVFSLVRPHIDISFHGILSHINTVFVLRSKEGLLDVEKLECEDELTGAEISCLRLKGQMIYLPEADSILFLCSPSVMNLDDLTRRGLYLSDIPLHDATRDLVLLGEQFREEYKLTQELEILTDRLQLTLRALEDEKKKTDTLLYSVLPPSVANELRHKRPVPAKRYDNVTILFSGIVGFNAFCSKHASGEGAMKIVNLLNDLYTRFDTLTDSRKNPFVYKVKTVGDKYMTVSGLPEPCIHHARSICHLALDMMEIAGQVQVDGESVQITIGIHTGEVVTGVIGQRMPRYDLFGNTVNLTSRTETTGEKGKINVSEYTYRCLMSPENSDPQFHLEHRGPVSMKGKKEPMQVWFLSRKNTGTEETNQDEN
Nature of the assay: MRE-CRE luciferase reporter assay in CHO cAMPL cells expressing mutated sGC (clone 7). Type of assay: cell-based. The conditions noted are these: dose response of BAY41-2272 in the absence or presence of ODQ (300 nM, 3 µM, 30 µM); 384 wp, Tyrode buffer. As for the experimental part: According to the invention, the sGC enzymatic activity is determined by coupling a sGC enzyme with modified substrate specificity to a cAMP sensitive reporter construct in a suitable eukaryotic or prokaryotic cell, whereby the activity of the reporter gene is indicative of the sGC enzymatic activity. The sGC enzyme with modified substrate specificity is able to catalyze the conversion of ATP into cyclic AMP without affecting the allosteric regulation of the natural enzyme. The sGC substrate specificity can be modified by replacing the amino acid residues involved in nucleotide binding with the corresponding residues present in the active site of adenylate cyclase. For example, when rat sGC is used, the amino acids Arg592 of α subunit, Glu473 and Cys541 of β subunit are respectively changed into Gln, Lys and Asp, to confer ATP substrate-specificity. More details on the modification of sGC substrate specificity can be found in Sunahara et al. (1998), which is hereby incorporated by reference.
Rat wild type sGC […] and β1 subunits were amplified from brain cDNA by RT-PCR and used as templates for site directed mutagenesis. […]
1500 c/w were seeded in 384 wp. […] Luciferase activity was detected after injection of 25ul Bright-GloTM (Promega) at the CCD camera (60" measurement, high sensitivity). […]

For `O=c1onc2cnc3ccccc3n12` [ODQ], the “Inhibition of BAY41-2272 activity by ODQ” value is given as “BAY41-2272 stimulating effect on sGC is competed by ODQ”.
